Experiment [1] has as its target T1, horseradish peroxidase (HRP) tagged delF508-CFTR (Homo sapiens, UniProt P13569, DEL508-508).
T1 construct: expressed in transfected cells
Put plainly: Measurement of delF508-CFTR-HRP surface expression in CFBE41o- cells.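 As to DelF508-CFTR-HRP Amax %: percent efficacy relative to reference corrector lumacaftor.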 The experiment is classed as cell-based. The settings on record: delF508-CFTR-HRP surface expression, CFBE41o- cells; for Emax: read-out: DelF508-CFTR-HRP Amax %; for pEC50: read-out: DelF508-CFTR-HRP EC50. An outline of the steps: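 Surface-trafficked delF508-CFTR detected via extracellular HRP tag, read as luminescence from a membrane-impermeant substrate in CFBE41o- cells. Cells pre-induced 48h with 500 ng/mL doxycycline, then exposed 24h at 37° C to a 10-point, 3-fold dilution series from 10 μM (DMSO ≤0.5%). Triplicate dose-responses fitted logistically for EC50 after per-plate normalization; fold change versus reference compound.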

Experiment [2] has as its target T2, delF508-CFTR (Homo sapiens, UniProt P13569, DEL508-508).
T2 construct: functional activity of the CFTR channel (Chloride ion transport) in patient derived primary human bronchial epithelial cells; host or cells: patient-derived primary human bronchial epithelial cells (delF508-CFTR)
Description: Measurement of delF508-CFTR functional activity in primary human bronchial epithelial cells (HBECs) using Multi-Transepithelial Clamp Circuit (MTECC-24) assay. The experiment is classed as cell-based. To be noted: primary CF HBECs; for MTECC24 CFHBEC- Amax %: test compound added 24h before assay plus potentiator, relative to reference combination (2 μM corrector + 0.5 μM potentiator); for pEC50: test compound added 24h before assay, in the presence of potentiator, mean of at least two replicates, read-out: MTECC24 CFHBEC- EC50. An outline of the steps:
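Compound tested as 10-point, 1-in-3 concentration response (0.1% or 0.2% DMSO), 24 h basolateral pre-incubation, then re-added to both sides. MTECC-24 measured Ieq in ALI-differentiated primary delF508 bronchial cells after amiloride, forskolin activation, potentiator and INH-172 block; data normalized to DMSO baseline, EC50 fitted.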

pEC50: −log10 of the molar value.

T2 sequence (P13569 with tags, fused parts or gaps DEL508-508): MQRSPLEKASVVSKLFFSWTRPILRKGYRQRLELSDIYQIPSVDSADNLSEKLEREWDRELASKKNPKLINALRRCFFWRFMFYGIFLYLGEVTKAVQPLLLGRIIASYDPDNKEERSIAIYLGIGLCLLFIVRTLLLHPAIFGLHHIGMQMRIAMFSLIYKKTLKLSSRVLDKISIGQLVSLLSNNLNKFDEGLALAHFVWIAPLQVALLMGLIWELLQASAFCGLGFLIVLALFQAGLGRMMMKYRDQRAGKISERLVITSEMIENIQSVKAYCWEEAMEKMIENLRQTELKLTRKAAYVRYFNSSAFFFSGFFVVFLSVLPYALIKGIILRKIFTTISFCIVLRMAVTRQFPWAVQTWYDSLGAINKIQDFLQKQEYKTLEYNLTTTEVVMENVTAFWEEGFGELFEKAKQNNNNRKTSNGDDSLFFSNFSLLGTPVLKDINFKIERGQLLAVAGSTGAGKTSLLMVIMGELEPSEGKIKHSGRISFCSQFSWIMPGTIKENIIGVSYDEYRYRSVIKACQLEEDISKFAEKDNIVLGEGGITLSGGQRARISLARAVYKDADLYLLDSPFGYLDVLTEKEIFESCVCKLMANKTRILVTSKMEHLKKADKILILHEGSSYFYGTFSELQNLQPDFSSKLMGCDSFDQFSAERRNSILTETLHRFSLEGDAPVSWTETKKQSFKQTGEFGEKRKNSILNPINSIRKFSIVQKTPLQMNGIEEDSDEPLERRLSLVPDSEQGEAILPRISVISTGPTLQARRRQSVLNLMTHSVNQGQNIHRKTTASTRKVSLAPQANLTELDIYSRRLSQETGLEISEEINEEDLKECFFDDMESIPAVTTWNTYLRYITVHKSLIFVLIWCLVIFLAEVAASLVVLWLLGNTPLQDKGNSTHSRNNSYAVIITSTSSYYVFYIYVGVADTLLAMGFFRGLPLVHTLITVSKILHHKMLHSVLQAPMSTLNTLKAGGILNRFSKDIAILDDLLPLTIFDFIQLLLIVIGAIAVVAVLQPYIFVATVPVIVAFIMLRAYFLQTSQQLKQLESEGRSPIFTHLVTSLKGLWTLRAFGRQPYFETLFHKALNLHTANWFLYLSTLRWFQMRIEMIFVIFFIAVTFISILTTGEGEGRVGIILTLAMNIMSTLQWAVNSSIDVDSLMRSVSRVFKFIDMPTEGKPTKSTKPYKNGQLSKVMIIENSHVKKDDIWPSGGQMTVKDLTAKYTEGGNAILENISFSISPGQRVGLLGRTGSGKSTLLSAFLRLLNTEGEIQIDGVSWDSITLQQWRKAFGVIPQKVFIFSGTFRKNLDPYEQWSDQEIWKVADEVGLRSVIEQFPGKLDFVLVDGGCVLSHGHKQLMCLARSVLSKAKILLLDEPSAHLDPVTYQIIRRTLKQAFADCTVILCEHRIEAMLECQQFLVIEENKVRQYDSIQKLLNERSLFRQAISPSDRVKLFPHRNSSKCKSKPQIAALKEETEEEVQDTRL
T1 sequence (P13569 with tags, fused parts or gaps DEL508-508): as above

As a reminder, the pEC50 is the EC50 on a negative log10 scale, so that one unit is a factor of ten. Take `Cc1ccccc1-c1nc(NS(=O)(=O)c2cccc(N3CCC(C)(C(=O)O)CC3)n2)ccc1C(F)(F)F` [Example 264, 4-methyl-1-(6-(N-(6-(o-tolyl)-5-(trifluoromethyl)pyridin-2-yl)sulfamoyl)pyridin-2-yl)piperidine-4-carboxylic Acid]: in experiment [1], the Emax was determined as 448% and the pEC50 is 5.58. For the same molecule, in experiment [2], the “MTECC24 CFHBEC- Amax %” value is recorded as 67.2% and the pEC50 is 7.93.
Consider `Cc1ccc(F)cc1-c1nc(NS(=O)(=O)c2cccc(N3CCN(C)CC3)n2)ccc1C(F)(F)F` [Example 179, N-(6-(5-fluoro-2-methylphenyl)-5-(trifluoromethyl)pyridin-2-yl)-6-(4-methylpiperazin-1-yl)pyridine-2-sulfonamide], for which the figures for the pEC50 in experiment [1] and in experiment [2] were 5.68 and 7.50, respectively. Further, the “MTECC24 CFHBEC- Amax %” value in experiment [2] turned out to be 91.9%.
For the molecule `Cc1ccc(F)cc1-c1nc(NS(=O)(=O)c2ccnc(N3CCNCC3)c2)ccc1C(F)(F)F` [Example 326, N-(6-(5-fluoro-2-methylphenyl)-5-(trifluoromethyl)pyridin-2-yl)-2-(piperazin-1-yl)pyridine-4-sulfonamide], in experiment [1], the Emax amounted to 103% and the pEC50 was 5.42. In experiment [2], the “MTECC24 CFHBEC- Amax %” value was 50.5% and the negative-log EC50 (pEC50) was 6.69.
`Cc1ccc(F)cc1-c1nc(NS(=O)(=O)c2cccc(N3CCN(C4CC4)CC3)n2)ccc1C(F)(F)F` [Example 145, 6-(4-cyclopropylpiperazin-1-yl)-N-(6-(5-fluoro-2-methylphenyl)-5-(trifluoromethyl)pyridin-2-yl)pyridine-2-sulfonamide]: in experiment [1], the negative-log EC50 (pEC50) is 5.90. Further, in experiment [2], the “MTECC24 CFHBEC- Amax %” value is 90.9% and the negative-log EC50 (pEC50) was 8.30.
Turning to `Cc1ccccc1-c1nc(NS(=O)(=O)c2cccc(N[C@@H]3COCC[C@@H]3O)n2)ccc1C(F)(F)F` (single isomer, unassigned) [Example 281], in experiment [1], the Emax was found to be 680% and the pEC50 was 5.70. In experiment [2], the “MTECC24 CFHBEC- Amax %” value was 85.9% and the pEC50 is 8.43.
Turning to `Cc1c(F)cccc1-c1nc(NS(=O)(=O)c2ccnc(N3CCOC[C@H]3C)c2)ccc1Cl` [Example 319, (R)—N-(5-chloro-6-(3-fluoro-2-methylphenyl)pyridin-2-yl)-2-(3-methylmorpholino)pyridine-4-sulfonamide], in experiment [1], the Emax turned out to be 195% and the pEC50 was 5.46. In experiment [2], the “MTECC24 CFHBEC- Amax %” value was 67.1% and the negative logarithm of the EC50 (pEC50) was 7.60.
The like results for `Cc1ccccc1-c1nc(NS(=O)(=O)c2cccc(N3CCC[C@@H](C(=O)O)C3)n2)ccc1C(F)(F)F` [Example 332, (3R)-1-(6-{[6-(2-methylphenyl)-5-(trifluoromethyl)pyridin-2-yl]sulfamoyl}pyridin-2-yl)piperidine-3-carboxylic Acid] were, in that order, 521%, 5.96, 84.0% and 8.32.
The like results for `Cc1ccc(C#N)cc1-c1nc(NS(=O)(=O)c2cccc(N3CC(C)(O)C3)n2)ccc1Cl` [Example 305, N-(5-chloro-6-(5-cyano-2-methylphenyl)pyridin-2-yl)-6-(3-hydroxy-3-methylazetidin-1-yl)pyridine-2-sulfonamide] were, in that order, 312%, 5.58, 81.3% and 7.35.
With `Cc1ccc(F)cc1-c1nc(NS(=O)(=O)c2cccc(N3CCC[C@H](C(=O)O)C3)n2)ccc1C(F)(F)F` [Example 359, (3S)-1-(6-{[6-(5-fluoro-2-methylphenyl)-5-(trifluoromethyl)pyridin-2-yl]sulfamoyl}pyridin-2-yl)piperidine-3-carboxylic Acid], in experiment [1], the Emax was 648% and the pEC50 is 5.71. In experiment [2], the “MTECC24 CFHBEC- Amax %” value is on record as 86.7% and the pEC50 was 8.69.

The record behind these values is patent US11066369B2, “N-(pyridin-2-yl)pyridine-sulfonamide derivatives and their use in the treatment of disease” (Novartis AG, priority 2016, dated 2021).
